In the NIST ThermoML archive (doi:10.1021/je050021e):

Test: xn = mol fraction of the nth substance listed
Conditions: Liquid

CC(=O)N1CCOCC1 [4-acetylmorpholine] + O
101 kPa
Conditions	mass density [kg/m3]	viscosity [mPa·s]
298.15 K, x1 = 0.05	1034.97	1.79
298.15 K, x1 = 0.07	1046.13	2.22
298.15 K, x1 = 0.1	1060.06	3.22
298.15 K, x1 = 0.2	1087.71	5.96
298.15 K, x1 = 0.3	1100.16	8.7
298.15 K, x1 = 0.4	1106	10.1
298.15 K, x1 = 0.5	1108.55	10.4
298.15 K, x1 = 0.6	1109.77	10.5
298.15 K, x1 = 0.7	1110.29	9.61
298.15 K, x1 = 0.8	1110.46	9.18
298.15 K, x1 = 0.9	1110.4	8.79
298.15 K, x1 = 1	1110.33	8.48
303.15 K, x1 = 0.05	1032.47	1.56
303.15 K, x1 = 0.07	1043.32	1.96
303.15 K, x1 = 0.1	1056.85	2.75
303.15 K, x1 = 0.2	1083.85	4.94
303.15 K, x1 = 0.3	1095.95	7.01
303.15 K, x1 = 0.4	1101.68	8.02
303.15 K, x1 = 0.5	1104.19	8.29
303.15 K, x1 = 0.6	1105.39	8.48
303.15 K, x1 = 0.7	1105.93	7.89
303.15 K, x1 = 0.8	1106.12	7.56
303.15 K, x1 = 0.9	1106.08	7.3
303.15 K, x1 = 1	1106	7.1
313.15 K, x1 = 0.05	1027.12	1.23
313.15 K, x1 = 0.07	1037.36	1.52
313.15 K, x1 = 0.1	1050.17	2.1
313.15 K, x1 = 0.2	1075.73	3.55
313.15 K, x1 = 0.3	1087.43	4.8
313.15 K, x1 = 0.4	1092.98	5.47
313.15 K, x1 = 0.5	1095.41	5.68
313.15 K, x1 = 0.6	1096.65	5.77
313.15 K, x1 = 0.7	1097.23	5.56
313.15 K, x1 = 0.8	1097.4	5.42
313.15 K, x1 = 0.9	1097.41	5.28
313.15 K, x1 = 1	1097.35	5.18
323.15 K, x1 = 0.05	1021.29	0.998
323.15 K, x1 = 0.07	1031.03	1.21
323.15 K, x1 = 0.1	1043.19	1.65
323.15 K, x1 = 0.2	1067.57	2.68
323.15 K, x1 = 0.3	1078.79	3.51
323.15 K, x1 = 0.4	1084.2	3.96
323.15 K, x1 = 0.5	1086.6	4.13
323.15 K, x1 = 0.6	1087.84	4.4
323.15 K, x1 = 0.7	1088.43	4.13
323.15 K, x1 = 0.8	1088.71	4.06
323.15 K, x1 = 0.9	1088.78	4
323.15 K, x1 = 1	1088.74	3.96
333.15 K, x1 = 0.05	1015.01	0.857
333.15 K, x1 = 0.07	1024.27	1.04
333.15 K, x1 = 0.1	1035.89	1.24
333.15 K, x1 = 0.2	1059.2	2.05
333.15 K, x1 = 0.3	1069.99	2.66
333.15 K, x1 = 0.4	1075.32	3
333.15 K, x1 = 0.5	1077.66	3.13
333.15 K, x1 = 0.6	1078.93	3.41
333.15 K, x1 = 0.7	1079.63	3.18
333.15 K, x1 = 0.8	1079.97	3.17
333.15 K, x1 = 0.9	1080.1	3.14
333.15 K, x1 = 1	1080.14	3.12
343.15 K, x1 = 0.05	1008.29	0.743
343.15 K, x1 = 0.07	1017.17	0.861
343.15 K, x1 = 0.1	1028.29	1.03
343.15 K, x1 = 0.2	1050.63	1.66
343.15 K, x1 = 0.3	1061.11	2.09
343.15 K, x1 = 0.4	1066.32	2.34
343.15 K, x1 = 0.5	1068.66	2.46
343.15 K, x1 = 0.6	1070	2.59
343.15 K, x1 = 0.7	1070.82	2.54
343.15 K, x1 = 0.8	1071.21	2.53
343.15 K, x1 = 0.9	1071.43	2.54
343.15 K, x1 = 1	1071.55	2.55

COCCOCCOCCOC [2,5,8,11-tetraoxadodecane] + O
Conditions	mass density, 101.3 kPa [kg/m3]	viscosity, 101 kPa [mPa·s]
303.15 K, x1 = 0.0198	1004.97	1.38
303.15 K, x1 = 0.05	1015.35	2.38
303.15 K, x1 = 0.07	1019.1	2.99
303.15 K, x1 = 0.1	1020.68	3.6
303.15 K, x1 = 0.2	1012.62	3.76
303.15 K, x1 = 0.3	1002.98	3.13
303.15 K, x1 = 0.4	995.48	2.67
303.15 K, x1 = 0.5	990.09	2.38
303.15 K, x1 = 0.6	985.94	2.14
303.15 K, x1 = 0.7	982.66	1.99
303.15 K, x1 = 0.8	979.8	1.9
303.15 K, x1 = 0.9	977.61	1.82
303.15 K, x1 = 1	975.86	1.77
313.15 K, x1 = 0.0198	1000.31	1.09
313.15 K, x1 = 0.05	1008.77	1.79
313.15 K, x1 = 0.07	1011.54	2.19
313.15 K, x1 = 0.1	1012.19	2.6
313.15 K, x1 = 0.2	1003.21	2.8
313.15 K, x1 = 0.3	993.51	2.39
313.15 K, x1 = 0.4	985.98	2.09
313.15 K, x1 = 0.5	980.57	1.94
313.15 K, x1 = 0.6	976.37	1.73
313.15 K, x1 = 0.7	973.09	1.65
313.15 K, x1 = 0.8	970.25	1.58
313.15 K, x1 = 0.9	968.06	1.51
313.15 K, x1 = 1	966.36	1.48
323.15 K, x1 = 0.0198	995.02	0.876
323.15 K, x1 = 0.05	1001.79	1.39
323.15 K, x1 = 0.07	1003.67	1.67
323.15 K, x1 = 0.1	1003.47	1.96
323.15 K, x1 = 0.2	993.71	2.1
323.15 K, x1 = 0.3	983.93	1.88
323.15 K, x1 = 0.4	976.37	1.69
323.15 K, x1 = 0.5	970.93	1.6
323.15 K, x1 = 0.6	966.77	1.44
323.15 K, x1 = 0.7	963.5	1.37
323.15 K, x1 = 0.8	960.68	1.32
323.15 K, x1 = 0.9	958.5	1.27
323.15 K, x1 = 1	956.85	1.26
333.15 K, x1 = 0.0198	989.18	0.728
333.15 K, x1 = 0.05	994.39	–
333.15 K, x1 = 0.07	995.46	1.33
333.15 K, x1 = 0.1	994.52	1.53
333.15 K, x1 = 0.2	984.05	1.66
333.15 K, x1 = 0.3	974.23	1.52
333.15 K, x1 = 0.4	966.69	1.4
333.15 K, x1 = 0.5	961.2	1.3
333.15 K, x1 = 0.6	957.06	1.21
333.15 K, x1 = 0.7	953.78	1.16
333.15 K, x1 = 0.8	950.98	1.13
333.15 K, x1 = 0.9	948.9	1.1
333.15 K, x1 = 1	947.32	1.08
343.15 K, x1 = 0.0198	982.78	0.617
343.15 K, x1 = 0.05	986.6	0.922
343.15 K, x1 = 0.07	986.96	1.08
343.15 K, x1 = 0.1	985.33	1.24
343.15 K, x1 = 0.2	974.27	1.34
343.15 K, x1 = 0.3	964.41	1.26
343.15 K, x1 = 0.4	956.86	1.17
343.15 K, x1 = 0.5	951.36	1.1
343.15 K, x1 = 0.6	947.25	1.04
343.15 K, x1 = 0.7	943.99	0.998
343.15 K, x1 = 0.8	941.33	0.976
343.15 K, x1 = 0.9	939.3	0.952
343.15 K, x1 = 1	937.72	0.945
